# Earlier results, collected in patent US20240082296A1, “TREATMENT OF MUSCLE ATROPHY USING DEXTRAN SULFATE” (TX MEDIC AB, priority 2020, published 2024).
# System: mouse model of muscle atrophy
# Details: after 2 weeks of treatment; cited from earlier work
substance,measurement,value
"recombinant HGF: recombinant hepatocyte growth factor, a naturally occurring neuroprotective and myogenic growth factor",increase in muscle mass,18%
